Results published in patent publication US6541463B1, “Inhibitors of type 5 and type 3 17β-hydroxysteroid dehydrogenase and methods for their use” (Endorecherche, Inc., priority 1998, dated 2003).
Where two headings read alike, the source gives them in different places.

Assays:
androgen receptor = biological target: T1, androgen receptor (Rattus norvegicus, UniProt P15207); assay: Androgen receptor (AR) assay: inhibition of [3H]R1881 binding, prostate cytosol
T1 construct: from tissue; host or cells: ventral prostate cytosol of gonadectomized male Sprague-Dawley rats
T1 sequence (P15207 1-902): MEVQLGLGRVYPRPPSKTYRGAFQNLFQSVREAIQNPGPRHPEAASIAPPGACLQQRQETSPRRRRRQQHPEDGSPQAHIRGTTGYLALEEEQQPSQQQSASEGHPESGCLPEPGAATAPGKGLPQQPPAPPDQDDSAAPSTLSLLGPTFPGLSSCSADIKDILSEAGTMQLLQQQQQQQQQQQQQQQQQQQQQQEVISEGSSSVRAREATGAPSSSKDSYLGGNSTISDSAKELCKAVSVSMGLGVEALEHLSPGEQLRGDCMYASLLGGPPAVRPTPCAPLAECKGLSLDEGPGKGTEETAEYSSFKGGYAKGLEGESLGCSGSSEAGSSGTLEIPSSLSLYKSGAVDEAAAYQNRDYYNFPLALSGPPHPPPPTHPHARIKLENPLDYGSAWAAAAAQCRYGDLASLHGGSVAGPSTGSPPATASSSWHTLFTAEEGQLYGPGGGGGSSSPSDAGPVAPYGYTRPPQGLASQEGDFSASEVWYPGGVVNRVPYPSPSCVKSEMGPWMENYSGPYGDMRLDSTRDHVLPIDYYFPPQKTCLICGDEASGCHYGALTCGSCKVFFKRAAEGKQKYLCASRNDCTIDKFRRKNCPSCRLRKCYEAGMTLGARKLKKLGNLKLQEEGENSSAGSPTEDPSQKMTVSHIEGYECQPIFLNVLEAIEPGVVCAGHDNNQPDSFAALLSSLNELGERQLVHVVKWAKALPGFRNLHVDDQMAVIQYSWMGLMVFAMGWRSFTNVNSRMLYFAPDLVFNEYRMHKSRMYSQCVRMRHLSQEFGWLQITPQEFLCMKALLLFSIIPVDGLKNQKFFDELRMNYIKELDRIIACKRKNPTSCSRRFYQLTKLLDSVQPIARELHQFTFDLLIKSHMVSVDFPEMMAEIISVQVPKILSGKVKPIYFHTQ
Protocol: The manner in which the percentage of inhibition is determined is described in “Other Tests; D-Androgen Receptor (AR) Assays”. Lower numbers are desirable.
Male Sprague-Dawley rats (Crl: CD(SD)Br) weighing 200-300 g were obtained from Charles-River Inc. (St-Constant, Québec, Canada). The rats were gonadectomized under general anesthesia (Isoflurane) and killed by cervical dislocation 24 hours later. The ventral prostates were rapidly removed, dissected free from adhering tissue and frozen on dry-ice. Prostates were kept at −80° C. until assay.
All subsequent steps were performed at 0-4° C. Prostates were homogenized in 5 vol (wt/vol) of buffer A (25 mM Tris-HCl, 1.5 mM EDTA disodium salt, 10 mM α-monothioglycerol, 10% glycerol, and 10 mM sodium molybdate, pH 7.4), using a Polytron PT-10 homogenizer (Brinkman Instruments, Canada) at a setting of 5 for three periods of 10 sec, with intervals of 10 sec for cooling. The homogenate was then centrifuged at 105,000×g for 60 min in a Beckman L5-65 ultracentrifuge (Fullerton, Calif.).
Androgen binding was measured using the hydroxylapatite assay (HAP). In brief, the radioactive steroid [^3H]R1881 solubilized in ethanol was diluted into buffer A. Aliquots of prostate cytosol preparation (0.1 ml) were then incubated with 8 nM [^3H]R1881 (0.1 ml, ˜200,000 cpm) in the presence or absence of the indicated concentrations of unlabeled compounds (0.1 ml, prepared in buffer A containing 10% ethanol) for 16-18 h at 0-4° C. […] Unbound steroids were separated by incubation for 40 min at 0-4° C. with 0.3 ml HAP prepared in buffer P (50 mM, Tris-HCl, 10 mM KH2PO4, pH 7.4) as follows: 10 g HAP were washed with buffer P until the supernatant reached a pH of 7.4 and then following centrifugation and decantation of the supernatant, 37.5 ml of buffer P were added. After incubation with HAP and 10 minutes of centrifugation at 1,000×g, the pellet was washed 3 times with 1 ml buffer P. Thereafter, the radioactivity was extracted from the pellet by incubation at room temperature for 60 minutes with 1 ml EtOH. After centrifugation, the supernatant was decanted into a scintillation vial and the pellet was extracted again with ethanol.

progesterone receptor = assay: Progesterone receptor assay: inhibition of [3H]R5020 binding, uterine cytosol; set-up: species or system rat
Protocol: The manner in which the percentage of inhibition is determined is described in “Other Tests; E-Progesterone Receptor Assay”. Lower numbers are desirable.
[17α-methyl-^3H]-promegestone (R5020) (84 Ci/mmol) and the corresponding unlabeled compound were purchased from New England Nuclear (Lachine, Québec, Canada). All other chemicals were of analytical grade.
Stock solutions of the unlabeled steroids were kept at 4° C. in ethanol. The desired steroid solutions were then prepared by appropriate dilution in buffer B (10 mM Tris-HCl, 1.5 mM EDTA, 10 mM α-monothioglycerol, pH 7.4) containing 30% ethanol.
Female Sprague-Dawley rats weighing 200-300 g were obtained from Charles-River Inc. (St-Constant, Québec, Canada). The rats were gonadectomized under general anesthesia (Isoflurane) and killed by cervical dislocation 24 hours later. The uteri are rapidly removed, dissected free from adhering tissue and frozen on dry-ice. Tissues were kept at −80° C. until use.
All procedures were performed at 4° C. Tissues were pulverized frozen in dry ice with a Thermovac pulverizer. The samples were then homogenized in 10 vol (w/v) of buffer A (25 mM Tris-HCl, 1.5 mM EDTA, 10 mM α-monothioglycerol, 10% glycerol, 10 mM sodium molybdate, pH 7.4) using a Polytron PT-10 homogenizer (Brinkmann Instruments, Canada) at a setting of 5 for two periods of 10 sec, with intervals of 10 sec for cooling. The homogenate was then centrifuged at 105,000×g for 90 min. The supernatant was used immediately for assay.
Progesterone binding was measured using the dextran-coated charcoal adsorption technique. […] Each concentration was done in triplicate. Assay was ended with 300 μl of DCC (1% Norit A and 0.1% Dextran T-70 in Buffer B). After 10 min of incubation, tubes were centrifuged at 2,000×g for 10 min. and decanted in vials with 6 ml of BCS liquid scintillation (New England Nuclear, Dupont). The radioactivity was measured in a Beckman counter at a counting efficiency of 35%.

[1] = read-out: % Inhibition Androgen Receptor E^−6
[2] = read-out: % Inhibition Androgen Receptor E^−8

## CC12C=CC(=O)C=C1C=CC1C2CCC2(C)C(=O)C3(CCCCC3)CC12 (stereo not shown) [CS-204]
Androgen receptor; E^−6
  inhibition at 1 µM: 5%
Androgen receptor; E^−8
  inhibition at 0.01 µM: 0%
Progesterone receptor; E^−6
  % Inhibition Progesterone Receptor E^−6: 2%
Progesterone receptor; E^−8
  % Inhibition Progesterone Receptor E^−8: 0%

## CC1(C)CCC2(CCC3C4CCc5ccccc5C4CCC32C)OC1=O (stereo not shown) [CS-224]
Androgen receptor; Table 4′, E^−6
  inhibition at 1 µM: 0%
Androgen receptor; Table 4′, E^−8
  inhibition at 0.01 µM: 0%
Progesterone receptor; Table 4′, E^−6
  % Inhibition Progesterone Receptor E^−6: 5%
Progesterone receptor; Table 4′, E^−8
  % Inhibition Progesterone Receptor E^−8: 2%

## CC(=O)O[C@]1(C)C(=O)CCC2C3C=C(C)C4=CC(=O)C=C[C@]4(C)C3CC[C@@]21C (stereo partly shown) [CS-237]
Androgen receptor; [1]
  inhibition at 1 µM: 11%
Androgen receptor; [2]
  inhibition at 0.01 µM: 0%
Progesterone receptor; E^−6
  % Inhibition Progesterone Receptor E^−6: 0%
Progesterone receptor; E^−8
  % Inhibition Progesterone Receptor E^−8: 0%

## CSCCOc1ccc2c(c1)CCC1C2CCC2(C)C1CCC21CCCC(=O)O1 [CS-242, 3-Methylthioethyloxy-1,3,5(10)-estratrien-17(R)-spiro-2′-(6′-oxo) Tetrahydropyran]
Androgen receptor; Table 4′, E^−6
  inhibition at 1 µM: 0%
Androgen receptor; Table 4′, E^−8
  inhibition at 0.01 µM: 0%
Progesterone receptor; Table 4′, E^−6
  % Inhibition Progesterone Receptor E^−6: 0%
Progesterone receptor; Table 4′, E^−8
  % Inhibition Progesterone Receptor E^−8: 0%

## CCC(=O)O[C@]1(C(C)=O)CCC2C3C=C(C)C4=CC(=O)C[C@H](C)[C@]4(C)C3CC[C@@]21C (stereo partly shown) [CS-243]
Androgen receptor; E^−6
  % Inhibition Androgen Receptor: 33%
Androgen receptor; E^−8
  % Inhibition Androgen Receptor: 0%
Progesterone receptor; E^−6
  % Inhibition Progesterone Receptor: 27%
Progesterone receptor; E^−8
  % Inhibition Progesterone Receptor: 0%

## CCCC(=O)OC1(C(C)=O)CCC2C3C=C(C)C4=CC(=O)CC(C)C4(C)C3CCC21C (stereo not shown) [CS-245]
Androgen receptor; E^−6
  % Inhibition Androgen Receptor: 71%
Androgen receptor; E^−8
  % Inhibition Androgen Receptor: 5%
Progesterone receptor; E^−6
  % Inhibition Progesterone Receptor: 26%
Progesterone receptor; E^−8
  % Inhibition Progesterone Receptor: 0%

## C[C@]12CCC3c4ccc(O)cc4CCC3C1CC[C@@]21CCCC(=O)O1 (stereo partly drawn) [EM-919, 1,3,5(10)-estratrien-3-ol-17(R)-spiro-2′(6′-oxo)tetrahydropyran]
Androgen receptor; Table 4′, starred values, E^−5
  % Inhibition Androgen Receptor *E^−5: 6* %
Androgen receptor; Table 4′, starred values, E^−7
  % Inhibition Androgen Receptor *E^−7: 0* %
Progesterone receptor; Table 4′, starred values, E^−5
  % Inhibition Progesterone Receptor *E^−5: 68* %
Progesterone receptor; Table 4′, starred values, E^−7
  % Inhibition Progesterone Receptor *E^−7: 8* %

## COC(=O)CCCC(=O)O[C@]1(C(C)=O)CC[C@H]2[C@@H]3C=C(C)C4=CC(=O)CC[C@]4(C)[C@H]3CC[C@@]21C [EM-1007, 6-Methyl-4,6-pregnadien-17α-ol-3,20-dione 4′-Carbomethoxybutyrate]
Androgen receptor; E^−6
  % Inhibition Androgen Receptor: 0%
Androgen receptor; E^−8
  % Inhibition Androgen Receptor: 0%
Progesterone receptor; E^−6
  % Inhibition Progesterone Receptor: 0%
Progesterone receptor; E^−8
  % Inhibition Progesterone Receptor: 0%

## CC1CCC2(CCC3C4CCc5ccccc5C4CCC32C)OC1=O (stereo not shown) [EM-1025]
Androgen receptor; Table 4′, E^−6
  inhibition at 1 µM: 0%
Androgen receptor; Table 4′, E^−8
  inhibition at 0.01 µM: 0%
Progesterone receptor; Table 4′, E^−6
  % Inhibition Progesterone Receptor E^−6: 4%
Progesterone receptor; Table 4′, E^−8
  % Inhibition Progesterone Receptor E^−8: 0%

## CCCC(=O)O[C@]1(C)C(=O)CCC2C3C=C(C)C4=CC(=O)CC[C@]4(C)C3CC[C@@]21C (stereo partly shown) [EM-1078]
Androgen receptor; [1]
  inhibition at 1 µM: 83%
Androgen receptor; [2]
  inhibition at 0.01 µM: 7%
Progesterone receptor; E^−6
  % Inhibition Progesterone Receptor E^−6: 53%
Progesterone receptor; E^−8
  % Inhibition Progesterone Receptor E^−8: 0%

## CCC[C@@H]1CC2C3C=CC4=CC(=O)CC[C@]4(C)C3CC[C@]2(C)C1=O (stereo partly shown) [EM-1097]
Androgen receptor; E^−6
  inhibition at 1 µM: 5%
Androgen receptor; E^−8
  inhibition at 0.01 µM: 0%
Progesterone receptor; E^−6
  % Inhibition Progesterone Receptor E^−6: 0%
Progesterone receptor; E^−8
  % Inhibition Progesterone Receptor E^−8: 2%

## CN1C(=O)C=C[C@]2(C)C3CC[C@@]4(C)C(CC[C@@]45CCCC(=O)O5)C3CCC12 (stereo partly shown) [EM-1122-CS]
Androgen receptor; Table 5 column 13, E^−6
  inhibition at 1 µM: 8%
Androgen receptor; Table 5 column 13, E^−8
  inhibition at 0.01 µM: 1%
Progesterone receptor; Table 5 column 14, E^−6
  % Inhibition Progesterone Receptor E^−6: 3%
Progesterone receptor; Table 5 column 14, E^−8
  % Inhibition Progesterone Receptor E^−8: 0%

## C[C@]12CCC3c4cc([N+](=O)[O-])c(O)cc4CCC3C1CC[C@@]21CCCC(=O)O1 (stereo partly drawn) [EM-1124, 2-Nitro-1,3,5(10)-estraetriene-3-ol-17(R)-spiro-2′-(6′-oxo)tetrahydropyran]
Androgen receptor; Table 4′, E^−6
  inhibition at 1 µM: 7%
Androgen receptor; Table 4′, E^−8
  inhibition at 0.01 µM: 1%
Progesterone receptor; Table 4′, E^−6
  % Inhibition Progesterone Receptor E^−6: 20%
Progesterone receptor; Table 4′, E^−8
  % Inhibition Progesterone Receptor E^−8: 1%

## CC1(C)CCC2(CCC3C4CCc5cc(O)c([N+](=O)[O-])cc5C4CCC32C)OC1=O (stereo not shown) [EM-1125-CS]
Androgen receptor; Table 4′, E^−6
  inhibition at 1 µM: 1%
Androgen receptor; Table 4′, E^−8
  inhibition at 0.01 µM: 2%
Progesterone receptor; Table 4′, E^−6
  % Inhibition Progesterone Receptor E^−6: 7%
Progesterone receptor; Table 4′, E^−8
  % Inhibition Progesterone Receptor E^−8: 5%

## CC1CCC2(CCC3C4CCc5cc(O)c([N+](=O)[O-])cc5C4CCC32C)OC1=O [EM-1126, 2-Nitro-1,3,5(10)-estratrien-3-ol-17(R)-spiro-2′-(5′-methyl-6′-oxo)tetrahydropyran]
Androgen receptor; Table 4′, E^−6
  % Inhibition Androgen Receptor E^−6: 10%
Androgen receptor; Table 4′, E^−8
  % Inhibition Androgen Receptor E^−8: 2%
Progesterone receptor; Table 4′, E^−6
  % Inhibition Progesterone Receptor E^−6: 14%
Progesterone receptor; Table 4′, E^−8
  % Inhibition Progesterone Receptor E^−8: 5%

## CC(=O)O[C@]1(C(C)=O)CCC2C3C=C(C)C4=CC(=O)CC[C@]4(C)C3CC[C@@]21C (stereo partly shown) [megestrol acetate, reference compound]
Progesterone receptor; * E^−5
  % Inhibition Progesterone Receptor: 97* %
Progesterone receptor; * E^−7
  % Inhibition Progesterone Receptor: 36* %
Progesterone receptor; E^−6
  % Inhibition Progesterone Receptor: 77%
Progesterone receptor; E^−8
  % Inhibition Progesterone Receptor: 3%
